Laboratory results from patent US20240400555A1 (Initial Therapeutics, Inc., priority 2023, published 2024).

system: HCT-116 Firefly-luciferase reporter cells; test: Cellular c-MYC Reporter Assay; assay type: cell-based; details: Homo sapiens; untitled table following Table 8a; HCT-116 Firefly-luciferase reporter cells, 24 h; read-out: pIC50 (converted)
Summary of the method: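 Reporter cells seeded at 5e4 cells/mL in McCoy's 5A with 10% FBS and G418, dosed after 4–6 h at 0.2% final DMSO. After 24 h at 37 °C, luciferase luminescence was read with ONE-Glo.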

Structure (SMILES)	IC50 [nM]
Cc1cccc2ccnc(N(C(=O)N3CCC(n4c(=O)ccc5ccccc54)CC3)[C@@H]3CCCNC3)c12 [Example 268, (R)—N-(8-methylisoquinolin-1-yl)-4-(2-oxoquinolin-1(2H)-yl)-N-(piperidin-3-yl)piperidine-1-carboxamide]	5890
Cc1cccc2ccnc(N(C(=O)N3CCCCC3C(=O)N(C)C)[C@@H]3CCCNC3)c12 (stereo partly drawn) [Example 258, N^2,N^2-dimethyl-N^1-(8-methylisoquinolin-1-yl)-N1-((R)-piperidin-3-yl)piperidine-1,2-dicarboxamide]	7240
Cc1cccc2ccnc(N(C(=O)N3CCC(Nc4ncccn4)CC3)[C@@H]3CCCNC3)c12 [Example 208, (R)—N-(8-methylisoquinolin-1-yl)-N-(piperidin-3-yl)-4-(pyrimidin-2-ylamino)piperidine-1-carboxamide]	3550
Cn1cc(-c2ccc(C(=O)N(c3ncccc3-c3cc[nH]n3)[C@@H]3CCCNC3)cc2)nn1 [Example 101, (R)—N-(3-(1H-pyrazol-3-yl)pyridin-2-yl)-4-(1-methyl-1H-1,2,3-triazol-4-yl)-N-(piperidin-3-yl)benzamide]	> 10000
Cc1cccc2ccnc(N(C(=O)c3ccc(-n4nnc5cccnc54)cc3)[C@H]3CNC[C@@H](C)C3)c12 [Example 225, 4-(3H-[1,2,3]triazolo[4,5-b]pyridin-3-yl)-N-(8-methylisoquinolin-1-yl)-N-((3R,5S)-5-methylpiperidin-3-yl)benzamide]	4790
Cc1cccc2ccnc(N(C(=O)c3ccc(Nc4ccc[nH]c4=O)cc3F)[C@@H]3CCCNC3)c12 [Example 132, (R)-2-fluoro-N-(8-methylisoquinolin-1-yl)-4-((2-oxo-1,2-dihydropyridin-3-yl)amino)-N-(piperidin-3-yl)benzamide]	1580
Cc1cccc2ccnc(N(C(=O)N3CC=C(c4ccccc4OCc4ccccc4)CC3)[C@@H]3CCCNC3)c12 [Example 299, (R)-4-(2-(benzyloxy)phenyl)-N-(8-methylisoquinolin-1-yl)-N-(piperidin-3-yl)-3,6-dihydropyridine-1(2H)-carboxamide]	5500
Cc1cccc2ccnc(N(C(=O)N3CCCC(CC4CCC4)C3)[C@@H]3CCCNC3)c12 (stereo partly drawn) [Example 260, 3-(cyclobutylmethyl)-N-(8-methylisoquinolin-1-yl)-N—((R)-piperidin-3-yl)piperidine-1-carboxamide]	5250
Cc1cc(C2CCN(C(=O)N(c3nccc4cccc(C)c34)[C@@H]3CCCCNC3)CC2)on1 [Example 181, (R)—N-(azepan-3-yl)-N-(8-methylisoquinolin-1-yl)-4-(3-methylisoxazol-5-yl)piperidine-1-carboxamide]	11000
Cc1cnc(Nc2ccc(C(=O)N(c3nccc4cccc(C)c34)[C@@H]3CCCNC3)c(F)c2)nc1 [Example 186, (R)-2-fluoro-N-(8-methylisoquinolin-1-yl)-4-((5-methylpyrimidin-2-yl)amino)-N-(piperidin-3-yl)benzamide]	200
Cc1cccc2ccnc(N(C(=O)c3ccc(-c4cncc(C#N)n4)cc3F)[C@@H]3CCCNC3)c12 [Example 198, (R)-2-fluoro-N-(8-methylisoquinolin-1-yl)-4-(6-cyanopyrazin-2-yl)-N-(piperidin-3-yl)benzamide]	617
Cc1cccc2ccnc(N(C(=O)N3CCC(c4nc(C5CC5)no4)CC3)[C@@H]3CCCNC3)c12 [Example 262, (R)-4-(3-cyclopropyl-1,2,4-oxadiazol-5-yl)-N-(8-methylisoquinolin-1-yl)-N-(piperidin-3-yl)piperidine-1-carboxamide]	575
Cc1cccc2ccnc(N(C(=O)N3CCC(c4cccc(O)c4)CC3)[C@@H]3CCCNC3)c12 [Example 269, (R)-4-(3-hydroxyphenyl)-N-(8-methylisoquinolin-1-yl)-N-(piperidin-3-yl)piperidine-1-carboxamide]	3550
Cc1cccc2ccnc(N(C(=O)N3CCC(c4nn(C)c(=O)o4)CC3)[C@@H]3CCCNC3)c12 [Example 174, (R)-4-(4-methyl-5-oxo-4,5-dihydro-1,3,4-oxadiazol-2-yl)-N-(8 methylisoquinolin-1-yl)-N-(piperidin-3-yl)piperidine-1-carboxamide]	3550

Next, values leading:

IC50 [nM]	Structure (SMILES)
977	C#Cc1cccnc1N(C(=O)c1ccc(-n2nnc3cccnc32)cc1F)[C@@H]1CCCNC1 [Example 107, (R)-4-(3H-[1,2,3]triazolo[4,5-b]pyridin-3-yl)-N-(3-ethynylpyridin-2-yl)-2-fluoro-N-(piperidin-3-yl)benzamide]
123	O=C(c1ccc(-n2nnc3cccnc32)cc1F)N(c1nccc2scc(Br)c12)[C@@H]1CCCNC1 [Example 122, (R)-4-(3H-[1,2,3]triazolo[4,5-b]pyridin-3-yl)-N-(3-bromothieno[3,2-c]pyridin-4-yl)-2-fluoro-N-(piperidin-3-yl)benzamide]
115	Cc1ccc(C)c2c(N(C(=O)c3ccc(-n4nnc5cccnc54)cc3F)[C@@H]3CCCNC3)nccc12 [Example 253, (R)-4-(3H-[1,2,3]triazolo[4,5-b]pyridin-3-yl)-N-(5,8-dimethylisoquinolin-1-yl)-2-fluoro-N-(piperidin-3-yl)benzamide]
891	Cc1nccnc1-c1ccc(C(=O)N(c2nccc3cccc(Cl)c23)[C@@H]2CCCNC2)c(F)c1 [Example 182, (R)—N-(8-chloroisoquinolin-1-yl)-2-fluoro-4-(3-methylpyrazin-2-yl)-N-(piperidin-3-yl)benzamide]
43.7	Cc1cccc2ccnc(N(C(=O)c3c(F)cc(-n4nnc5cccnc54)cc3F)[C@@H]3CCCNC3)c12 [Example 218, (R)-4-(3H-[1,2,3]triazolo[4,5-b]pyridin-3-yl)-2,6-difluoro-N-(8-methylisoquinolin-1-yl)-N-(piperidin-3-yl)benzamide]
1700	Cc1cccc2ccnc(N(C(=O)c3cccc(Cn4nc5cccnc5n4)c3F)[C@@H]3CCCNC3)c12 [Example 273, (R)-3-((2H-[1,2,3]triazolo[4,5-b]pyridin-2-yl)methyl)-2-fluoro-N-(8-methylisoquinolin-1-yl)-N-(piperidin-3-yl)benzamide]
339	COC(=O)c1ccc2ccnc(N(C(=O)c3ccc(-n4nnc5cccnc54)cc3F)[C@@H]3CCCNC3)c2c1 [Example 129, methyl (R)-1-(4-(3H-[1,2,3]triazolo[4,5-b]pyridin-3-yl)-2-fluoro-N-(piperidin-3-yl)benzamido)isoquinoline-7-carboxylate]
107	Cc1cccc2ccnc(N(C(=O)c3ccc(-n4nnc5cccnc54)cn3)[C@@H]3CCCNC3)c12 [Example 244, (R)-5-(3H-[1,2,3]triazolo[4,5-b]pyridin-3-yl)-N-(8-methylisoquinolin-1-yl)-N-(piperidin-3-yl)picolinamide]
479	Cc1cccc2ccnc(N(C(=O)c3ccc(-c4cnccn4)cc3F)[C@@H]3CCCNC3)c12 [Example 204, (R)-2-fluoro-N-(8-methylisoquinolin-1-yl)-N-(piperidin-3-yl)-4-(pyrazin-2-yl)benzamide]
288	Cc1cccc2ccnc(N(C(=O)c3ccc(-n4nnc5ccc(-c6ccccc6)nc54)cc3F)[C@@H]3CCCNC3)c12 [Example 171, (R)-2-fluoro-N-(8-methylisoquinolin-1-yl)-4-(5-phenyl-3H-[1,2,3]triazolo[4,5-b]pyridin-3-yl)-N-(piperidin-3-yl)benzamideamide]
437	Cc1cccc2ccnc(N(C(=O)c3ccc(-c4cnn(C)c4)cc3)[C@@H]3CCCNC3)c12 [Example 239, (R)-4-(1-methyl-1H-pyrazol-4-yl)-N-(8-methylisoquinolin-1-yl)-N-(piperidin-3-yl)benzamide]
2400	CNC(=O)OCc1ccc2ccnc(N(C(=O)c3ccc(-n4nnc5cccnc54)cc3F)[C@@H]3CCCNC3)c2c1 [Example 153, (R)-(1-(4-(3H-[1,2,3]triazolo[4,5-b]pyridin-3-yl)-2-fluoro-N-(piperidin-3-yl)benzamido)isoquinolin-7-yl)methyl methylcarbamate]
380	Cn1cc(-c2ccc3c(N(C(=O)c4ccc(-n5nnc6cccnc65)cc4F)[C@@H]4CCCNC4)nccc3c2)cn1 [Example 97, (R)-4-(3H-[1,2,3]triazolo[4,5-b]pyridin-3-yl)-2-fluoro-N-(6-(1-methyl-1H-pyrazol-4-yl)isoquinolin-1-yl)-N-(piperidin-3-yl)benzamide]
275	Cc1cccc2ccnc(N(C(=O)c3ccc(Nc4ncccn4)cc3F)[C@@H]3CCCNC3)c12 [Example 210, (R)-2-fluoro-N-(8-methylisoquinolin-1-yl)-N-(piperidin-3-yl)-4-(pyrimidin-2-ylamino)benzamide]
2000	O=C(c1ccc(-n2nnc3cccnc32)cc1F)N(c1nccc2cccc(C(F)(F)F)c12)[C@@H]1CCCNC1 [Example 221, (R)-4-(3H-[1,2,3]triazolo[4,5-b]pyridin-3-yl)-2-fluoro-N-(piperidin-3-yl)-N-(8-(trifluoromethyl)isoquinolin-1-yl)benzamide]
2570	O=C(c1ccc(-n2nnc3cccnc32)cc1F)N(c1ncccc1-c1cnn(CCO)c1)[C@@H]1CCCNC1 [Example 116, (R)-4-(3H-[1,2,3]triazolo[4,5-b]pyridin-3-yl)-2-fluoro-N-(3-(1-(2-hydroxyethyl)-1H-pyrazol-4-yl)pyridin-2-yl)-N-(piperidin-3-yl)benzamide]
355	Cc1cccc2ccnc(N(C(=O)c3ccc(-c4cnn(C)c4-c4ccccc4)cc3F)[C@@H]3CCCNC3)c12 [Example 126, (R)-2-fluoro-4-(1-methyl-5-phenyl-1H-pyrazol-4-yl)-N-(8-methylisoquinolin-1-yl)-N-(piperidin-3-yl) benzamide]
170	CNC(=O)c1ccc2nnn(-c3ccc(C(=O)N(c4nccc5cccc(C)c45)[C@@H]4CCCNC4)c(F)c3)c2n1 [Example 139, (R)-3-(3-fluoro-4-((8-methylisoquinolin-1-yl)(piperidin-3-yl)carbamoyl)phenyl)-N-methyl-3H-[1,2,3]triazolo[4,5-b]pyridine-5-carboxamide]
